# Experimental data taken from US12263177B2, “Biologically active ganoderma lucidum compounds and synthesis of anticancer derivatives; ergosterol peroxide probes for cellular localization” (priority 2019, dated 2025).
# How the values were obtained:
# MDA-MB-231 = assay: Cytotoxicity of EP probes via CTG assay; format: cell-based, human; conditions: Homo sapiens, MDA-MB-231, 72 hr, read-out: MDA-MB231 EC50
# Procedure: (§3) Both normal cell lines HMEC and BJ cells were also evaluated to determine therapeutic index.
# (§4) The concentrations used were experimentally determined to ensure logarithmic growth during the duration of the experiment and prevent adverse effects on cell growth by DMSO exposure. The plates were incubated at 37° C. in 5% CO2 for 24 h before treatment. Stock solutions of test compounds (10 mM in DMSO) in nine 3-fold serial dilutions were dispensed via pintool (Biomek). The final concentration of DMSO was 0.3% (v/v) in each well. The plates were incubated for 72 h at 37° C. in 5% CO2 and then quenched with CellTiter-Glo® reagent (50 μL/well in 96-well plate, 30 μL/well in 384-well plate) at RT. The positive controls included staurosporine (10 μM), gambogic acid (10 μM), and a toxic quinoline generated in-house. Plates were then incubated at RT for 20 min and centrifuged at 1000 rpm for 1 min. The cytotoxicity assay was performed by using the CellTiterGlo Luminescent Cell Viability Assay kit (G7570, Promega, Madison, WI) according to the manufacturer's instructions. Luminescence was recorded in an Envision plate reader (Perkin Elmer).
# (§5) For the CTG assay, 3 or 4 replicate assays were conducted for each experimental condition, and a minimum of 3 independent experiments were conducted for cellular assays. The mean luminescence of each experimental treatment group was normalized as a percentage of the mean intensity of untreated controls. EC50 values (μM) were calculated by Pipeline Pilot Software (Accelrys, Enterprise Platform, CA, USA). EC50 values (μM) from the viability assay were calculated from dose response curve-fitting via non-linear regression by using GraphPad Prism (Version 7.0 San Diego, CA).
# T47D = assay: Cytotoxicity of EP probes via CTG assay; format: cell-based; conditions: Homo sapiens, T47D, 72 hr
# Procedure: as §3, §4, §5
# HMEC = assay: Cytotoxicity of EP probes via CTG assay, normal cells; format: cell-based; conditions: Homo sapiens, HMEC, 72 hr
# Procedure: as §3, §4, §5
# SUM-190 IBC cells = assay: Cell viability assay (CellTiter-Glo or PI staining); format: cell-based; conditions: SUM190; FIG. 4E
# Procedure: Different concentrations of GLE-extracted bioactive chemical components were tested for 72-h treatment periods.
# Either 1×10^3-4.8×10^3 or 4×10^2-1.2×10^3 cells were seeded to each well of 96- or 384-well white polystyrene flat-bottomed plates (3610 or 8804BC, Corning) in 100 μL or 30 μL media per well, respectively. The concentrations used were experimentally determined to ensure logarithmic growth during the duration of the experiment and prevent adverse effects on cell growth by DMSO exposure. The plates were incubated at 37° C. in 5% CO2 for 24 h before treatment. Stock solutions of test compounds (10 mM in DMSO) in nine 3-fold serial dilutions were dispensed via pintool (Biomek). The final concentration of DMSO was 0.3% (v/v) in each well. […] Luminescence was recorded in an Envision plate reader (Perkin Elmer).
# as §5
# MCF10A = format: cell-based
# Procedure: As a control, normal human skin fibroblasts (BJ) cells and non-cancerous mammary epithelial cells (MCF10A) were used.
# Cell viability assays (MTT or PI staining assays) in SUM-149, SUM-190, MDA-MB-231, and MCF10A cells were performed as we previously described [14].
# SUM-149 cells [1] = assay: Cell cycle assay; format: cell-based, human; conditions: EP 20 μM, 48 h
# Procedure: SUM-149 cells were treated for 48 h with EP, then collected and washed in 1×PBS. The cells (5×10^5) were fixed and permeabilized in 70% ethanol at −20° C. until further analysis. To measure the DNA content, the cells were washed and resuspended in 150 μL of PBS buffer then incubated in 100 μL of 100 μg/mL RNase A (MilliporeSigma, Burlington, MA) for 15 min at RT, then 250 μL of 50 μg/mL Propidium Iodide (MilliporeSigma) was added. Samples were incubated at RT for 10 min and analyzed on a BD FACS Canto II flow cytometer (BD Biosciences, San José, Calif.). Data were analyzed by using FlowJo software (V10, FlowJo LLC, Ashland, OR).
# MDA-MB-231 cells = assay: ApoTox-Glo Triplex assay (caspase 3/7); format: cell-based, human; conditions: MDA-MB-231, 24 h
# Procedure: (§1) Cells commonly fail to bypass the G1 phase of the cycle due to mutations or DNA damage, which can result in apoptosis. […] In addition, caspase 3/7 activity assays were performed as an alternate method of apoptosis detection.
# (§2) Cells (9.5×10^4/well in 75 μL of fresh medium) were dispensed in 96-well black flat bottom (8807BC, Corning) plates. The cells were incubated for 12 h at 37° C. and then treated with compounds (25 μL) for 24 h. DMSO was used as a negative control, and staurosporine was used as the positive control. The experiment was stopped by adding the Viability/Cytotoxicity Reagent and briefly mixed by orbital shaking (300-500 rpm for ˜30 sec). Plates were incubated for 30 min at 37° C., and fluorescence was measured in an Envision plate reader at the following two wavelength sets: 400Ex/505Em (Viability) 485Ex/520Em (Cytotoxicity). Then, the Caspase-Glo® 3/7 Reagent was added; plates were mixed briefly by orbital shaking (300-500 rpm for ˜30 sec), followed by an additional 30 min incubation at RT. Then luminescence, which correlates with caspase 3/7 activation, was recorded with a plate reader to determine apoptosis induction.
# SUM-149 cells [2] = assay: ApoTox-Glo Triplex assay (caspase 3/7); format: cell-based, human; conditions: SUM-149, 24 h
# Procedure: as §1, §2
# [3] = test system: MDA-MB-231 breast cancer cells; assay: De novo in-cell protein synthesis (click assay); format: cell-based, human; conditions: 2 h treatment; EP 20 μM
# Procedure: First, 2.5×10^4 cells/well were seeded in 8-well μ-slides (Ibidi®, #80826) and incubated at 37° C. for 12 h. The cells were treated with vehicle, compounds Ganoderic acid A or EP, or cycloheximide (positive control) for 2 h to determine protein synthesis as nascent proteins generated using Biovision's EZClick™ Global Protein Synthesis Assay Kit, (#K715-100, Milpitas, CA). The assay includes a robust chemical method based on an alkyne containing o-propargyl-puromycin (OP-puro) probe, which stops translation by forming covalent conjugates with nascent polypeptide chains. Truncated polypeptides are rapidly turned over by the proteasome and can be detected based on the subsequent click reaction with a fluorescent azide. The reaction was conducted according to the manufacturer's protocol. Cells were imaged at 20× with a Nikon C2 scanning confocal microscope, and the whole image montage was quantified by using Gen5 Software and Lionheart™ FX Automated Microscope (BioTek, Winooski, VT).
# SUM-149 cells [4] = assay: Migration assay (Boyden chamber); format: cell-based, human; conditions: 10 μM, 72 h
# Procedure: Previously, the anti-migratory activities of whole mushroom GLE in SUM-149 cells was reported. To investigate EP's effects on cell migration, Boyden chamber assays; while to investigate invasion, Transwell chambers were used. […] Furthermore, an additional decrease (43%) was seen when cells were treated with a non-lethal dose of 15 μM of EP (P<0.01) (FIG. 8B).
# Cell migration and invasion were measured by using Corning® FluoroBlok™ Cell Culture Inserts and performing BD BioCoat Matrigel invasion assays (BD Biosciences, San José, Calif.) as described in [12, 14].
# [5] = test system: AKT isoforms, BCL-XL, Cyclin D1, c-Myc, PARP in SUM-149 cells; assay: Immunoblots of signaling proteins; format: cell-based, human
# From the text: Studies that focus on drivers of cancer cell survival and invasion signaling show the important role of the AKT isoforms in breast cancer. AKT1 and AKT3 are associated with breast cancer invasion, and PTEN-deficient tumors depend on AKT2 for maintenance and survival. […] Regulation of AKT isoform expression by EP is extremely similar to what the inventors reported with whole mushroom GLE in the same breast cancer cell lines.
# Because EP induced apoptosis, its effects on the expression on anti-apoptosis proteins BCL-2 and BCL-XL, which block the release of cytochrome C from the mitochondria were investigated. […] The apoptosis inducing effects of EP in SUM-149 cells were investigated by monitoring PARP cleavage.
# Breast cancer cells treated with vehicle or EP were lysed, and equal total protein was resolved via SDS-PAGE and immunoblotted with indicated antibodies (Cell Signaling Technologies, Abcam, Sigma) as described previously.
# Solubility observations = format: physicochemical
# Procedure: One of the liabilities with EP is sharing its core with cholesterol, an amphipathic molecule with part-water soluble, part-water insoluble character. Thus, while able to readily cross the cell membrane, the ability to deliver the pure compound faces challenges. EP's solubility properties are poor in DMSO or water unless warmed up to 30° C. However, in this report, EP's derivative, EP sulfonamide, was soluble at 10 mM in DMSO. Thus, the generation of a selective anti-cancer compound with greater potency than EP, and ample therapeutic window when compared to BJ normal cells, was accomplished.
smiles,measurement,setting,value
"CC(C)[C@@H](C)/C=C/[C@@H](C)[C@H]1CC[C@@H]2[C@]1(C)CC[C@H]1[C@]23C=C[C@]2(C[C@@H](O)CC[C@]12C)OO3 [EP, ergosterol peroxide]",EC50,MDA-MB-231,18 µM
same,EC50,T47D,19 µM
same,EC50,HMEC,> 20 µM
same,EC50,SUM-190 IBC cells,43 µM
same,cytotoxicity in MCF10A non-cancerous mammary epithelial cells,MCF10A,did not induce cytotoxicity
same,increase in percentage of cells in G1 phase,SUM-149 cells [1],~20%
same,reduction of the percentage of cells in G2/M,SUM-149 cells [1],10%
same,caspase 3/7 activity,MDA-MB-231 cells,increase caspase 3/7 activity
same,caspase 3/7 activity,SUM-149 cells [2],increase caspase 3/7 activity
same,de novo protein synthesis inhibition,[3],do not inhibit de novo protein synthesis
same,cancer cell migration,SUM-149 cells [4],decreases cancer cell migration
same,AKT2 levels,[5]; SUM-149,decreases
same,AKT3 levels,[5]; SUM-149,not affecting
same,expression of BCL-XL,[5]; SUM-149,significantly reduces
same,expression of Cyclin D1,[5]; SUM-149,significantly reduces
same,expression of c-Myc,[5]; SUM-149,significantly reduces
same,expression of p-AKT1 (Ser 473),[5]; SUM-149,significantly decreases
same,p-AKT2,[5]; SUM-149,without affecting
same,total AKT1 levels,[5]; SUM-149,decreases
same,PARP cleavage,"[5]; SUM-149, 24 h, EP 30 μM",induces PARP cleavage
same,total PARP levels,"[5]; SUM-149, 24 h, EP 30 μM",significantly reduces
same,solubility properties (in words),Solubility observations,poor
